In patent EP0067565A1, “Pharmaceutically active compounds” (BEECHAM GROUP PLC, priority 1981, dated 1982):

Tests used:
rats = assay: Increase in intragastric pressure; format: in vivo; details: dose level of 1.0 mg/kg s.c.; conscious but restrained rats; average height of pressure waves, 40 minute period after administration vs pre-dose; Student's t test
Experimental: Intragastric pressure changes were recorded from previously starved conscious but restrained rats using a saline filled catheter inserted into the lumen of the stomach via a permanent gastric fistula. The catheter was connected to a physiological pressure transducer and pressure changes recorded on a hot wire pen recorder. In each animal a pre-dose period of 40 minutes was allowed to obtain a measure of spontaneous activity. An index of activity was obtained by measuring the average height of pressure waves during 10 minute periods. Values for 4 such periods were obtained during assessment of spontaneous activity and for 40 minute period after administration of compound. Student's "t" test was applied to the difference in average values obtained for spontaneous and post compound activity.

dog = assay: Anti-emetic activity in the dog (apomorphine-induced vomiting); format: in vivo; details: compound subcutaneously 30 minutes prior to apomorphine HC1 0.1 mg/kg subcutaneously; for ED50: Canis lupus familiaris, sc, read-out: ED50 values for inhibition of the vomiting response
Experimental: Compounds were administered subcutaneously 30 minutes prior to administration of a standard dose of apomorphine HC1 (0.1 mg/kg subcutaneously) and the vomiting response compared to that obtained when the same animals were dosed with apomorphine HC1 and vehicle only. The ED50 values for inhibition of the vomiting response determined for compound 11 and 13 were 1.0 mg/kg; for compound 33, 0.1 mg/kg and for compound 35, 0.01 mg/kg.

Q: For COc1cc(N)c(Cl)cc1C(=O)N[C@H]1C[C@@H]2CCCN2[C@H](C)C1 (racemic) [Compound 9, (±) 4-Amino-5-chloro-2-methoxy-N-[7'α-(9'β-methyl-1'-aza-5'α-H-bicyclo[4,3,0]nonyl)]benzamide], which “index of activity post administration” value (rats) is on record?
A: significantly increased

Q: For COc1cc(N)c(Cl)cc1C(=O)N[C@@H]1C[C@@H]2CCCN2[C@@H](C)C1 (racemic) [Compound 11, (±) 4-Amino-5-chloro-2-methoxy-rd-[7'β-(9'α-methyl-1'-aza-5α-H-bicyclo[4,3,0]nonyl)]benzamide], which “index of activity post administration” value (rats) is on record?
A: significantly increased

Q: And the ED50 (dog)?
A: 1 mg/kg

Q: How did the “ED50 values for inhibition of the vomiting response” value (dog) turn out when “(±) 4-Amino-5-chloro-2-methoxy-N-[7'β-(9'α-isopropyl-1'-aza-5'-α-H-bicyclo[4,3,0]nonyl)]benzamide [Compound 35]” was run?
A: 0.01 mg/kg

Q: With CC[C@H]1C[C@H](NC(=O)c2cc(Cl)c(N)cc2OC)C[C@@H]2CCCN12 (racemic) [Compound 33, (±) 4-Amino-5-chloro-2-methoxy-N-[7'β-(9'α-ethyl-1'-aza-5'α-H-bicyclo[4,3,0]nonyl)]benzamide] as the compound, how does the ED50 (dog) read?
A: 0.1 mg/kg

Q: Which ED50 (dog) does the source give for COc1cc(N)c(Cl)cc1C(=O)N[C@H]1C[C@@H]2CCCN2[C@@H](C)C1 (racemic) [Compound 13, (±) 4-Amino-5-chloro-2-methoxy-N-[7'α-(9'α-methyl-1'-aza-5α-H-bicyclo[4,3,0]nonyl)]benzamide] here?
A: 1 mg/kg

Q: COc1cc(N)c(Cl)cc1C(=O)N[C@@H]1C[C@@H]2CCCN2[C@H](C)C1 (racemic) [Compound 8, (±) 4-Amino-5-chloro-2-methoxy-N-[7'β-(9'β-methyl-1'-aza-5'α-H-bicyclo[4,3,n]nonyl)]benzamide] was tested. Which “index of activity post administration” value (rats) did it give?
A: significantly increased
